# ChEMBL document CHEMBL3861981 (J Med Chem, 2016)
# Experiments:
# Genome polyprotein = Genome polyprotein (GB virus-B, UniProt Q69422); assay: Inhibition of GBV-B NS3 protease
# [1] = Cardiotoxicity in anesthetized rabbit assessed as effect on PR interval at 30 mg/kg, iv administered as 10 mins infusion measured up to 60 mins post dose by electrophysiology assay; assay type: toxicity, organism-based, Oryctolagus cuniculus; details: in vivo
# Homo sapiens = species: Homo sapiens; assay: Inhibition of sodium channel (unknown origin) at 10 uM at 4 Hz by patch clamp assay
# [2] = Inhibition of recombinant full length HCV genotype 2b HC-J8 NS3/4A protease preincubated for 30 mins followed by substrate addition measured by FRET assay; parameters: species or system Hepatitis C virus subtype 2b
# [3] = Cardiotoxicity in dog assessed as effect on PR interval at 30 to 100 mg/kg administered as single dose by electrophysiology assay; assay type: toxicity, organism-based, Canis lupus familiaris; details: in vivo
# [4] = Cytotoxicity against human HEK293T cells assessed as decrease in cell viability
# [5] = Half life in cynomolgus monkey plasma at 3 mg/kg, iv administered as 5 mins infusion by LC/MS/MS analysis; assay type: ADME, organism-based, Macaca fascicularis
# [6] = Cardiotoxicity in anesthetized rabbit assessed as effect on QRS interval at 30 mg/kg, iv administered as 10 mins infusion measured up to 60 mins post dose by electrophysiology assay; assay type: toxicity, organism-based, Oryctolagus cuniculus; details: in vivo
# [7] = Clearance in Beagle dog plasma at 1 mg/kg, iv administered as 5 mins infusion measured up to 24 hrs post dose by LC/MS/MS analysis; assay type: ADME, organism-based, Canis lupus familiaris
# Neutrophil elastase = molecular target: T1, Neutrophil elastase (Homo sapiens, UniProt P08246); assay: Inhibition of human leukocyte elastase
# T1 sequence (P08246 whole entry): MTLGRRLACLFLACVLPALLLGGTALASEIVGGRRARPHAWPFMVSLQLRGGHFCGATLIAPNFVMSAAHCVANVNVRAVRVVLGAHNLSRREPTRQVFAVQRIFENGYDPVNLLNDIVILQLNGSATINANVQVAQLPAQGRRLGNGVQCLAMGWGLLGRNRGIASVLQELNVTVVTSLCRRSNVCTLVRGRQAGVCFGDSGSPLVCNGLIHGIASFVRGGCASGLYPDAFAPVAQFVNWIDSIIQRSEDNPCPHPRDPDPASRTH
# Sequence of Genome polyprotein (Q69422 941-1564 limits assumed): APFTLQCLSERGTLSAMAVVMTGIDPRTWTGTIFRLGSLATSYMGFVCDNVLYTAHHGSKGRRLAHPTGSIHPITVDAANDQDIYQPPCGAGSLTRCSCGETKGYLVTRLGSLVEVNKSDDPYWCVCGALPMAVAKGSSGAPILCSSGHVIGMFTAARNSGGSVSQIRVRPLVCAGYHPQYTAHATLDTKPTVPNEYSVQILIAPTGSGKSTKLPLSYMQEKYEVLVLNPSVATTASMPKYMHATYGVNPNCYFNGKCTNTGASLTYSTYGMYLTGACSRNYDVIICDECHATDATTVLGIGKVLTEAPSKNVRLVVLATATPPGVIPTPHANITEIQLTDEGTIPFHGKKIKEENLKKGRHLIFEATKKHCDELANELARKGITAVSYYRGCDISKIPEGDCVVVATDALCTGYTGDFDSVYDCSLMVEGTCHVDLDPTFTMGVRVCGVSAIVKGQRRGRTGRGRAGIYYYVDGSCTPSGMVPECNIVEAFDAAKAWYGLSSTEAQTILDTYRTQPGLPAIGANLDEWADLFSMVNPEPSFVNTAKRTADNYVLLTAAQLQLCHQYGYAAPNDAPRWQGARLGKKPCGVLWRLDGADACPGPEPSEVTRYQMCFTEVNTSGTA
smiles,measurement,setting,value
COc1cnc(O[C@@H]2C[C@@H](C(=O)N[C@]3(C(=O)NS(=O)(=O)C4CC4)C[C@H]3C3CC3)N(C(=O)[C@@H](NC(=O)O[C@H](C)C(F)(F)F)C3CCCCC3)C2)c2cc(Cl)ccc12,IC50,Genome polyprotein,> 25 µM
same,Activity,[1],Non-Toxic
same,inhibition,Homo sapiens,46.4%
same,IC50,[2],0.22 µM
same,Activity,[3],Non-Toxic
same,CC50,[4],8 to 14 µM
same,half-life,[5],6.1 h
same,Activity,[6],Non-Toxic
same,clearance,[7],4.3 mL/min/kg
same,IC50,Neutrophil elastase,21 µM
